Assay [1] concerns Endothelin-1 (ET-1) production from human epidermal keratinocytes. The assay can be described thus: Evaluation on production inhibition of endothelin-1 (ET-1) in UVB-irradiated keratinocytes (ELISA). It counts as cell-based. The following applies: UVB 80 mJ/cm^2, supernatant 48 hours after irradiation, relative to agent-free UVB control = 100. As to the method:
Human epidermal keratinocytes were inoculated into 6-well plates to give an amount of 100000 cells per well, and then the cells were cultured for 3 days until the cells turned confluent. After it was verified that the cells turned confluent, their media were each substituted with PBS (−). The individual plates were irradiated with UVB at an irradiation intensity of 80 mJ/cm^2. After the irradiation with the UVB, DMEM in which arctigenin or each of the arctigenin derivatives was dissolved was added to one of the individual plates. After 48 hours from the irradiation, the supernatant (in the one plate) was collected, and the supernatant was centrifuged at 3000 rpm for 5 minutes. Furthermore, the supernatant therein was collected to prepare specimens for ELISA. As a control, a sample was used which was obtained by collecting a supernatant of an agent-free plate irradiated with UVB irradiation. A device used for measuring ET-1 was an Endthelin-1 Human EIA kit (manufactured by Assay Designs, Inc.). […] In each of FIGS. 1 to 3 and FIGS. 6 to 8, one of its vertical axes represents a relative value of each of the specimens when the ET-1 production amount of the control was regarded as 100. In each of FIGS. 1 to 3 and FIGS. 6 to 8, its graph line represents the respective cell survival rates (of the specimens) when the value of the control was regarded as 100%.
For orientation: An ELISA detects its analyte on a solid surface through an enzyme-linked reagent.

The test system of assay [2] is tyrosinase (originating from mushroom). Put plainly: Tyrosinase inhibiting activity measurement. The format is biochemical. The note with it: test concentration 0.01%, compared with arctigenin. On the procedure:
To each well of a 96-well plate were added 1 μL of a 1 w/w % of each of the samples (test concentration: 0.01%) that was dissolved in DMSO, 20 μL of a 400 U/mL of a tyrosinase solution (originating from mushroom), and 79 μL of distilled water. Thereto were added a reaction solution (0.1 mg/mL L-tyrosine solution (Wako Pure Chemical Industries, Ltd.)) and 100 μL of a 1.3-mM copper sulfate pentahydrate solution (Wako Pure Chemical Industries, Ltd.)/a 60-mM phosphate buffer (pH: 6.0). The resultant was incubated at 37° C. for one hour. Thereafter, the absorbance of the sample was measured at 640 nm. This was used as a measured value (testing sample measured value or control measured value). The tyrosinase inhibiting activity (%)=(the absorbance of each of the samples/the absorbance of the control)×100

The target in assay [3] is T1, elastase (derived from human leukocyte) (Homo sapiens, UniProt P08246).
T1 construct: elastase (derived from human leukocyte); from tissue; host or cells: human leukocyte
T1 sequence (P08246 30-267): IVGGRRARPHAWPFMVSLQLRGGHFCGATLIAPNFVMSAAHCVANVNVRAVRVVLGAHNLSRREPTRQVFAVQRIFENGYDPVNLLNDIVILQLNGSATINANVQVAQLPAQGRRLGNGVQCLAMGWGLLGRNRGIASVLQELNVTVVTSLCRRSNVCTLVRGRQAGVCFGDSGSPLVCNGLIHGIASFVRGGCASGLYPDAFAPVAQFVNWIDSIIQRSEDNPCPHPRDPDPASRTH
The assay can be described thus: Elastase activity measurement. The format is biochemical. The note with it: compared with arctigenin; 37° C., 2 hours, absorbance at 405 nm. As to the method:
Into a 96-well plate were added 1 μL of each of the samples that was dissolved in DMSO, and 100 μL of elastase (derived from human leukocyte) adjusted to 10 μg/mL. Furthermore, to each of the wells was added to 50 μL of a substrate solution (Suc-(Ala)3-pNa) adjusted to 5 mM. A tris-HCL buffer (pH: 8.0) was used to adjust the final volume thereof to 200 μL. Under a condition at 37° C., the plate was heated for 2 hours. The absorbance of the sample at 405 nm was used as an index of the elastase activity, and the elastase inhibiting activity thereof was calculated in accordance with the following equation: The elastase inhibiting activity (%)=(the absorbance of each of the samples/the absorbance of the control)×100

Assay [4] has as its system B16F10 melanoma cells. The assay can be described thus: Melanin production inhibition test using B16. The format is cell-based. The following applies: 0.1% (w/v), 72 hours, compared with arctigenin, n=3. On the procedure: After 24 hours, the culture solution was removed. […] Furthermore, the cells were cultured for 72 hours.
The absorbance thereof was measured at 475 nm.

Take “Palmitate Arctigenin [Comparative Example 1]”: in assay [1], the “inhibition of the production of ET-1” value is on record as “does not significantly inhibit the production of ET-1”. Further, the tyrosinase inhibiting capability entry in assay [2] is given as “no tyrosinase inhibiting capability”.
With `COc1ccc(C[C@H]2COC(=O)[C@@H]2Cc2ccc(OC(C)=O)c(OC)c2)cc1OC` [Example 1, Acetoxyarctigenin], the elastase inhibiting capability entry in assay [3] is on record as “far stronger elastase inhibiting capability than arctigenin”.
As for Arctigenin Propionate [Example 2], the elastase inhibiting capability result in assay [3] is recorded as “far stronger elastase inhibiting capability than arctigenin”. Further, the “inhibition of the production of melanin per living cell” value in assay [4] is given as “more significantly inhibited the production of melanin per living cell than arctigenin”.

Values taken from US9675538B2, “Anti-aging agent containing arctigenin derivative” (ROHTO Pharmaceutical Co., Ltd., priority 2012, dated 2017).
